{"source": "patent US10952999B2", "about": "“Inhibitor of cyclin-dependent kinase CDK9” (GENFLEET THERAPEUTICS (SHANGHAI) INC., priority 2017, dated 2021)", "key": {"hamster lung cell CHL": {"tested_on": "hamster lung cell CHL", "test": "Cancer cell growth, Cell Titer-Glo cell viability assay, 72 hours", "type": "cell-based", "method_in_brief": "(§1)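 Read-out: luminescent ATP measurement (CellTiter-Glo) as proxy for live cells; GI50/IC50 derived from it.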"}, "hamster ovary cell CHO": {"tested_on": "hamster ovary cell CHO", "test": "Cancer cell growth, Cell Titer-Glo cell viability assay, 72 hours", "type": "cell-based", "method_in_brief": "as §1"}, "[1]": {"tested_on": "human non-small cell lung cancer cell H2122", "test": "Cancer cell growth, Cell Titer-Glo cell viability assay, 72 hours", "type": "cell-based", "conditions": "NCI-H2122, H2122, 72 hours", "method_in_brief": "as §1"}, "[2]": {"tested_on": "acute B cell leukemia cell line MEC-1", "test": "Cancer cell growth, Cell Titer-Glo cell viability assay, 72 hours", "type": "cell-based", "conditions": "Homo sapiens, MEC1; MEC-1, 72 hours", "method_in_brief": "as §1"}, "[3]": {"tested_on": "acute myeloid leukemia cell line MOLM14", "test": "Cancer cell growth, Cell Titer-Glo cell viability assay, 72 hours", "type": "cell-based", "conditions": "Homo sapiens; MOLM-14, 72 hours", "method_in_brief": "as §1"}, "[4]": {"tested_on": "histiocytic lymphoma U-937", "test": "Cancer cell growth, Cell Titer-Glo cell viability assay, 72 hours", "type": "cell-based", "conditions": "Homo sapiens; U-937, 72 hours", "method_in_brief": "as §1"}, "[5]": {"tested_on": "human lung cancer cell H3122", "test": "Cancer cell growth, Cell Titer-Glo cell viability assay, 72 hours", "type": "cell-based", "conditions": "NCI-H3122, H3122, 72 hours", "method_in_brief": "as §1"}, "[6]": {"tested_on": "human non-small cell lung cancer cell H1975", "test": "Cancer cell growth, Cell Titer-Glo cell viability assay, 72 hours", "type": "cell-based", "conditions": "NCI-H1975, H1975, 72 hours", "method_in_brief": "as §1"}, "[7]": {"tested_on": "human lung adenocarcinoma cell H1355", "test": "Cancer cell growth, Cell Titer-Glo cell viability assay, 72 hours", "type": "cell-based", "conditions": "NCI-H1355, H1355, 72 hours", "method_in_brief": "as §1"}, "[8]": {"tested_on": "human breast cancer cell T47D", "test": "Cancer cell growth, Cell Titer-Glo cell viability assay, 72 hours", "type": "cell-based", "method_in_brief": "as §1"}, "[9]": {"tested_on": "human small cell lung cancer cell H209", "test": "Cancer cell growth, Cell Titer-Glo cell viability assay, 72 hours", "type": "cell-based", "conditions": "NCI-H209, H209, 72 hours", "method_in_brief": "as §1"}, "[10]": {"tested_on": "human breast cancer cell MDA-MB-231", "test": "Cancer cell growth, Cell Titer-Glo cell viability assay, 72 hours", "type": "cell-based", "conditions": "MDA-MB-231, 72 hours", "method_in_brief": "as §1"}, "[11]": {"tested_on": "human non-small cell lung cancer cell PC-9", "test": "Cancer cell growth, Cell Titer-Glo cell viability assay, 72 hours", "type": "cell-based", "conditions": "PC-9, 72 hours", "method_in_brief": "as §1"}, "[12]": {"tested_on": "MDS-RAEB (myelodysplastic syndrome-excess blasts type) cell line SKM-1", "test": "Cancer cell growth, Cell Titer-Glo cell viability assay, 72 hours", "type": "cell-based", "conditions": "Homo sapiens; SKM-1, 72 hours", "method_in_brief": "as §1"}, "[13]": {"tested_on": "human non-small cell lung cancer cell H1915", "test": "Cancer cell growth, Cell Titer-Glo cell viability assay, 72 hours", "type": "cell-based", "conditions": "NCI-H1915, H1915, 72 hours", "method_in_brief": "as §1"}, "[14]": {"tested_on": "acute myeloid leukemia cell line MOLM13", "test": "Cancer cell growth, Cell Titer-Glo cell viability assay, 72 hours", "type": "cell-based", "conditions": "Homo sapiens; MOLM-13, 72 hours", "method_in_brief": "as §1"}, "[15]": {"tested_on": "acute myeloid leukemia cell line OCI-AML-2", "test": "Cancer cell growth, Cell Titer-Glo cell viability assay, 72 hours", "type": "cell-based", "conditions": "Homo sapiens; OCI-AML2, 72 hours", "method_in_brief": "as §1"}, "[16]": {"tested_on": "human non-small cell lung cancer cell HCC827", "test": "Cancer cell growth, Cell Titer-Glo cell viability assay, 72 hours", "type": "cell-based", "conditions": "HCC827, 72 hours", "method_in_brief": "as §1"}, "[17]": {"tested_on": "human lung adenocarcinoma cell H1395", "test": "Cancer cell growth, Cell Titer-Glo cell viability assay, 72 hours", "type": "cell-based", "conditions": "NCI-H1395, H1395, 72 hours", "method_in_brief": "as §1"}, "[18]": {"tested_on": "acute myeloid leukemia cell line HL-60", "test": "Cancer cell growth, Cell Titer-Glo cell viability assay, 72 hours", "type": "cell-based", "conditions": "Homo sapiens; HL-60, 72 hours", "method_in_brief": "as §1"}, "[19]": {"tested_on": "acute megakaryoblastic leukemia CMK", "test": "Cancer cell growth, Cell Titer-Glo cell viability assay, 72 hours", "type": "cell-based", "method_in_brief": "as §1"}, "[20]": {"tested_on": "acute myeloid leukemia cell line MV4-11", "test": "Cancer cell growth, Cell Titer-Glo cell viability assay, 72 hours", "type": "cell-based", "conditions": "Homo sapiens; MV4-11, 72 hours", "method_in_brief": "as §1"}, "[21]": {"tested_on": "human breast cancer cell MCF-7", "test": "Cancer cell growth, Cell Titer-Glo cell viability assay, 72 hours", "type": "cell-based", "conditions": "MCF7, MCF-7, 72 hours", "method_in_brief": "as §1"}, "[22]": {"tested_on": "acute promyelocytic leukemia cell line NB-4", "test": "Cancer cell growth, Cell Titer-Glo cell viability assay, 72 hours", "type": "cell-based", "conditions": "NB4, 72 hours", "method_in_brief": "as §1"}, "[23]": {"tested_on": "human leukemia cell Nomo-1", "test": "Cancer cell growth, Cell Titer-Glo cell viability assay, 72 hours", "type": "cell-based", "conditions": "Homo sapiens; Nomo-1, 72 hours", "method_in_brief": "as §1"}, "[24]": {"test": "Body weight of mice in the MV4-11 mouse model", "type": "in vivo", "conditions": "orally per day, Bal b/c mice", "description": "24 Bal b/c female mice, 4-6 weeks, were purchased from Shanghai Slack Laboratory Animals Co., Ltd. and kept in SPF laboratory. The drinking water and padding were aseptically treated by autoclaving. All operations were carried out under aseptic conditions. On day 0, 5×10^6MV4-11 acute granulocyte leukemia cells (purchased from ATCC) were subcutaneously injected into the left side of all mice' back. Starting on day 15, all mice were divided into four groups (6 mice per group), methyl cellulose (HKI) solvent was orally administered to the first group of mice per day; compound 1 at a dose of 10 mg/kg mice body weight was orally administered to the second group of mice per day; compound 1 at a dose of 20 mg/kg mice body weight was orally administered to the third group of mice per day; compound 1 at a dose of 30 mg/kg mice body weight was orally administered to the fourth group of mice per day. From the start of administration, the length/width of the subcutaneous tumor was measured with a vernier caliper every day, and the body weight of the mouse was recorded every day, and the effect of compound 1 on the body weight of the mouse was observed. […] The trend of subcutaneous tumor growth was counted within day 16 to day 43, and the tumor volume was calculated as: length×width×width/2 mm^3."}}, "note": "pIC50: −log10 of the molar value.", "data": [{"smiles": "COC[C@@H](C)N[C@H]1CC[C@H](Nc2cc(-c3csc(NCC4(C#N)CCOCC4)n3)c(Cl)cn2)CC1", "note": "[Compound 1, 4-(((4-(5-chloro-2-(((1R,4r)-4-(((R)-1-methoxypropyl-2-yl)amino)cyclohexyl)amino)pyridin-4-yl)thiazol-2-yl)amino)methyl)tetrahydro-2H-pyran-4-carbonitrile]", "values": [{"measurement": "inhibitory effect on normal cell CHL (in words)", "setting": "hamster lung cell CHL; CHL cells", "value": "no inhibitory effect"}, {"measurement": "GI50", "setting": "hamster lung cell CHL; CHL, 72 hours", "value": 1100, "unit": "nM"}, {"measurement": "inhibitory effect on normal cell CHO (in words)", "setting": "hamster ovary cell CHO; CHO cells", "value": "no inhibitory effect"}, {"measurement": "GI50", "setting": "hamster ovary cell CHO; CHO, 72 hours", "value": 1600, "unit": "nM"}, {"measurement": "pIC50", "setting": "[1]", "value": 7.31}, {"measurement": "GI50", "setting": "[2]", "value": 47, "unit": "nM"}, {"measurement": "GI50", "setting": "[3]", "value": 25, "unit": "nM"}, {"measurement": "GI50", "setting": "[4]", "value": 17, "unit": "nM"}, {"measurement": "pIC50", "setting": "[5]", "value": 7.96}, {"measurement": "pIC50", "setting": "[6]", "value": 7.38}, {"measurement": "pIC50", "setting": "[7]", "value": 7.00}, {"measurement": "pIC50", "setting": "[8]", "value": 7.26}, {"measurement": "pIC50", "setting": "[9]", "value": 7.07}, {"measurement": "pIC50", "setting": "[10]", "value": 7.13}, {"measurement": "pIC50", "setting": "[11]", "value": 7.05}, {"measurement": "GI50", "setting": "[12]", "value": 33, "unit": "nM"}, {"measurement": "pIC50", "setting": "[13]", "value": 7.43}, {"measurement": "GI50", "setting": "[14]", "value": 25, "unit": "nM"}, {"measurement": "GI50", "setting": "[15]", "value": 33, "unit": "nM"}, {"measurement": "pIC50", "setting": "[16]", "value": 7.22}, {"measurement": "pIC50", "setting": "[17]", "value": 6.92}, {"measurement": "GI50", "setting": "[18]", "value": 32, "unit": "nM"}, {"measurement": "GI50", "setting": "[19]", "value": 49, "unit": "nM"}, {"measurement": "GI50", "setting": "[20]", "value": 14, "unit": "nM"}, {"measurement": "pIC50", "setting": "[21]", "value": 8.22}, {"measurement": "GI50", "setting": "[22]", "value": 35, "unit": "nM"}, {"measurement": "GI50", "setting": "[23]", "value": 45, "unit": "nM"}, {"measurement": "effect on the body weight of mice", "setting": "[24]; high dose group (20, 30 mg/kg)", "value": "affected the body weight"}, {"measurement": "effect on the body weight of mice", "setting": "[24]; low dose group (10 mg/kg)", "value": "no significant effect"}]}]}
